Patent publication US11940441B2, “Low shear microfluidic devices and methods of use and manufacturing thereof” (President and Fellows of Harvard College, priority 2013, dated 2024)

Assays:
Assay type in all cases: cell-based, human
[1] = tested on: differentiated airway cells; test: IL-13 induced asthma-like phenotype in the airway-on-a-chip
Excerpt: FIGS. 30A-30D show induction of asthma-like phenotype in the airway-on-a-chip for assessment of drug efficacy. […] FIG. 30B is a bar graph showing quantification of globet cell coverage based on the fluorescent images (representative images shown in FIG. 30A). FIG. 30C is a set of bar graphs showing secretion of G-CSF and GM-CSF by IL-13 stimulated cells, as compared to cells without IL-13 stimulation. FIG. 30D is a bar graph showing cilia beating frequency under indicated conditions. In FIGS. 30B-30D, the “airway” devices were also used to assess the drug efficacy of Tofacitinib, a JAK inhibitor, by treating the IL-13 stimulated cells with Tofacitinib, and measuring each phenotype as described above accordingly.
To develop asthma-like phenotype in the devices described herein, airway cells were differentiated in the devices, e.g., using the methods as described in Example 1 or 2, and then stimulated with IL-13 to induce asthma-like phenotype in the devices. IL-13 is a protein secreted by immune cells which is found in high quantities in lungs of asthmatics.
The “airway” devices were then used to assess the drug efficacy of Tofacitinib, a JAK inhibitor.

[2] = tested on: COPD epithelium-microvascular endothelium co-culture; test: Inflammatory cytokine secretion from the microvascular channel of COPD co-culture devices (Multiplex Cytokine Detection System); settings: budesonide 10 nM or PFI-2 500 nM, poly (I:C) 10 μg/ml 6 h
Excerpt: (§1) FIGS. 28A-28C show capability of determining drug efficacy on neutrophil capture and adhesion and inflammation suppression in a small airway mimicking device according to one or more embodiments described herein. (FIG. 28A) Representative immunofluorescence images showing adhesion of recruited neutrophils under three different conditions: (left) no drug; (middle) budesonide; (right) PFI-2. Neutrophils were stained with Hoechst immediately prior to experiment to allow visualization and quantification. (FIG. 28B) Bar graph showing percentage change in neutrophil adhesion to activated endothelium as imaged in FIG. 28A. (n=3 different donors per condition; 7-8 devices per condition from 4 independent experiments; 4-5 distinct fields per chip). (FIG. 28C) A set of bar graphs showing levels of different cytokine secretion modulated by the indicated drug or under no treatment. Cytokines measured include: neutrophil-attractant IL-8, GROα, and GM-CSF, monocyte-chemoattractant MCP-1, and acute inflammation associated cytokine IL-6. (n=3 donors per condition).
COPD epithelium-microvascular endothelium co-culture devices were established, e.g., as described in Example 1 or 2, and then were either treated with the corticosteroid drug budesonide (10 nM) or PFI-2 (a bromodomain-containing protein 4 (BRD4) inhibitor drug; 500 nM), or left untreated. The COPD epithelium was then stimulated with poly (I:C) 10 μg/ml via the “airway lumen” channel for 6 h and then examined for adhesion of recruited neutrophils. Neutrophils were stained with Hoechst immediately prior to experiment to allow visualization and quantification. Representative immunofluorescence images of the three conditions are illustrated in FIG. 28A.
To compare the ability of budesonide and PFI-2 in suppressing inflammatory cytokine secretion, secreted cytokines from the “microvascular” channel of the co-culture devices were also analyzed by Multiplex Cytokine Detection System prior to neutrophil recruitment assay.

[3] = tested on: neutrophil adhesion to activated endothelium; test: Neutrophil capture and adhesion in COPD epithelium-microvascular endothelium co-culture device after poly (I:C); settings: budesonide 10 nM or PFI-2 500 nM; poly (I:C) 10 μg/ml for 6 h; compared with no treatment
Excerpt: as §1, with “(FIG. 28C) A set of bar graphs showing levels of different cytokine secretion modulated by the indicated drug or under no treatment.” left out, “(n=3 donors per condition).” left out
COPD epithelium-microvascular endothelium co-culture devices were established, e.g., as described in Example 1 or 2, and then were either treated with the corticosteroid drug budesonide (10 nM) or PFI-2 (a bromodomain-containing protein 4 (BRD4) inhibitor drug; 500 nM), or left untreated. […] Neutrophils were stained with Hoechst immediately prior to experiment to allow visualization and quantification. […]
Effects of budesonide and PFI-2 on neutrophil adhesion were quantified.

[4] = tested on: differentiated airway epithelial cells; test: Infection response of differentiated airway epithelial cells to TLR-3 ligand poly I:C in the device
Experimental: FIGS. 11A-11D illustrate an exemplary method of evaluating an infection response of differentiated small airway epithelial cells and optionally immune cells in a device in accordance with an embodiment, and experimental data resulting therefrom. FIG. 11A is a schematic diagram illustrating an example method to evaluate an infection response in the device. Primary small airway epithelial cells were seeded on the membrane in the mesochannel (an “airway lumen” channel) for differentiation into ciliated and/or mucus-secreting cells following the differentiation method as described in FIG. 5A. Upon differentiation of the airway epithelial cells, another surface of the membrane (facing the microchannel, the “blood vessel” channel) could be seeded with or without endothelial cells. The differentiated cells in the mesochannel were then challenged with a toll-like receptor 3 (TLR-3) ligand poly I:C to induce inflammation. A fluid comprising immune cells (e.g., human monocytes) was introduced into the “blood vessel” channel, either with a static fluid or a flowing fluid, to determine effects of TLR-3-induced inflammation on cytokine/chemokine profiles of the differentiated cells and/or recruitment of immune cells (e.g., monocytes and/or neutrophils). […] FIG. 11C is a set of data showing quantification of monocytes attached to the TLR-3 activated differentiated epithelial cells in the device and the associated fluorescent images. FIG. 11D is a graph showing gene expression of differentiated epithelial cells after treatment with or without a TLR-3 ligand poly I:C.
By way of example only, FIGS. 11A-11D illustrate the capability of using one embodiment of the device described herein to model a bacterial/viral infection. […] Cytokines or chemokines secreted into the fluid flowing in the mesochannel and/or microchannel can be measured by collecting from the outlet an aliquot of the fluid exiting the mesochannel and/or microchannel, which is then subjected to cytokine/chemokine expression analyses.

[5] = tested on: pulmonary microvascular endothelial cells; test: Cell adhesion molecule gene expression in endothelial cells after apical poly (I:C) challenge of co-cultured epithelium; settings: apical poly (I:C) 10 μg/ml for 6 h, compared to cells without challenge
Excerpt: FIGS. 27A-27C show establishment of a three-cell type microfluidic co-culture system comprising ciliated epithelium, endothelium and circulating leukocytes. (FIG. 27A) Left panel: a 3D cross-sectional diagram of one embodiment of the devices described herein used to re-create post-capillary venules (major sites of leukocyte recruitment and adhesion in vivo). Middle panel: a schematic diagram showing a 3-cell type co-culture of epithelium, endothelium and neutrophils (all primary cells). Right panel: vertical immunofluorescence cross-section of ciliated epithelium and endothelium bilayer on-device. Ciliated cells were labeled for β-tubulin IV and endothelial cells were stained with anti-CD31/PECAM-1 antibody. Nuclei were counterstained with DAPI. Scale bar, 20 μm. […] Following initial attachment the neutrophil crawled over apical surface of activated endothelium and then firmly adhered (times indicated in seconds). Neutrophils and endothelial cells had been live stained with CellTracker Red and Calcein AM, respectively. (FIG. 27C) Bar graphs showing E-selectin and VCAM1 mRNA levels in endothelia cells upon treatment of differentiated epithelial cells with or without poly (I:C). (3 devices per condition were used) […]

[6] = tested on: COPD and healthy differentiated epithelial cells; test: Cytokine response of differentiated COPD and healthy epithelia to TLR stimulation in the device; settings: for M-CSF secretion: poly(I:C) stimulation; for IL8 secretion: LPS stimulation
Excerpt: FIGS. 26A-26E are data graphs showing COPD disease phenotype can be established in the device according to one or more embodiments described herein. […] FIG. 26B compares IL-8 secretion between COPD and healthy epithelia after LPS (lipopolysaccharides) stimulation. FIG. 26C compares M-CSF secretion between COPD and healthy epithelia after […] (polyinosinic:polycytidylic acid) stimulation.
It was next sought to determine cytokine production in response to TLR stimulation. Cytokines are molecules that are involved in inflammation and their generation can be modulated by TLR activation. After the well-differentiated (i.e. mucociliary) epithelium (normal and COPD-derived) was stimulated with lipopolysaccharides (LPS), a qPCR was performed on the cells to compare inflammatory response between COPD and healthy epithelia in the devices described herein. LPS is a bacterial derived molecule that stimulates TLR4. […] This is in line with clinical reports and other ex vivo observations that COPD patients are hyper-reactive inflammation-wise and produce more pro-inflammatory mediators. […] M-CSF is a cytokine that promotes survival and differentiations of a subset of immune cells, e.g., macrophages, in our bodies. This agrees with general observations that in the lungs of COPD patients there is generally an increased number of macrophages as compared to the number of macrophages in healthy individuals.

[7] = IL-13 stimulation compared to cells without IL-13 stimulation
[8] = drug treatment of IL-13 stimulated cultures
[9] = healthy donor and COPD epithelial cells, poly (I:C) stimulation

For “IL-13: a protein secreted by immune cells which is found in high quantities in lungs of asthmatics”, the cilia beating frequency [1, 7] was “lower cilia beating frequency”, the “number of goblet cells” value [1, 7] was “higher number of goblet cells” and the “secretion of G-CSF” value [1, 7] was “higher secretion”. The “secretion of GM-CSF” value [1, 7] was “higher secretion”.
`C[C@@H]1CCN(C(=O)CC#N)C[C@@H]1N(C)c1ncnc2[nH]ccc12` [Tofacitinib] was tested, and the G-CSF secretion [1, 8] was “decrease GM-CSF and G-CSF secretion”, the GM-CSF secretion [1, 8] was “decrease GM-CSF and G-CSF secretion” and the cilia beating frequency [1, 8] was “increase cilia beating frequency”. The “number of goblet cells” value [1, 8] was “decrease the number of goblet cells”.
With `Cl.O=C([C@@H](Cc1cccc(C(F)(F)F)c1)NS(=O)(=O)c1cc(F)c2c(c1)CCNC2)N1CCCC1` [PFI-2] the “secretion of GM-CSF” value [2] was “significantly lowered”, the “secretion of GROα” value [2] was “significantly lowered” and the “secretion of IL-6” value [2] was “significantly lowered”. For the same molecule, the “secretion of IL-8” value [2] was “significantly lowered”, the “secretion of MCP-1” value [2] was “significantly lowered” and the “neutrophil recruitment / adhesion to activated endothelium” value [3] was “significantly lowered”.
With “polyinosinic:polycytidylic acid [poly (I:C)]” the “release of chemokines (monocyte and neutrophil chemoattractants)” value ([4]; TLR-3 activation of differentiated airway epithelial cells) was “stimulates release of chemokines”, the “monocyte adhesion to differentiated epithelial cells” value ([4]; TLR-3 stimulation) was “enhances monocyte adhesion” and the “epithelial cells' gene expression of IP-10” value ([4]; differentiated epithelial cells with or without poly I:C) was “significantly increases”. For the same molecule, the “E-selectin gene expression in endothelial cells” value [5] was “significant up-regulation”, the “VCAM-1 transcript levels in endothelial cells” value [5] was “higher, but not statistically significant” and the M-CSF secretion ([6]; COPD epithelial cells) was “selectively up-regulated”. For the same molecule, the “expression of IP-10” value [6, 9] was “induced in both healthy donor and COPD epithelial cells”, the “expression of RANTES” value [6, 9] was “induced in both healthy donor and COPD epithelial cells” and the M-CSF secretion ([6]; healthy epithelial cells) was “no significant change”.
With lipopolysaccharides [LPS] the IL8 secretion ([6]; COPD epithelial cells) was “selectively induced” and the IL8 secretion ([6]; healthy epithelial cells) was “without increasing”.
